Data taken from patent publication US8895547B2, “Substituted phenyl-oxathiazine derivatives, method for producing them, drugs containing said compounds and the use thereof” (Sanofi, priority 2011, dated 2014).
pIC50: −log10 of the molar value.

Biological target: T1, human 11β-HSD1 (Homo sapiens, UniProt P28845)
T1 construct: host or cells: microsome fraction
Test: Enzymatic 11beta-HSD1 test (SPA-based detection)
Format: biochemical
Conditions: human 11β-HSD1 microsome fraction, [1,2-3H]-cortisone, NADPH, 37° C. 1 hour
How it was run: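 Scintillation proximity detection: anti-cortisol antibody on SPA-PVT beads captured tritiated cortisol. The stop mix also contained 0.01 mM SSR110887 and was equilibrated 1 h at room temperature before counting. Cortisol came from [1,2-3H]-cortisone ([…]), turned over by human 11β-HSD1 microsomal protein (0.2 µg) with 0.25 mM NADPH in HEPES buffer, 37 °C, 1 h.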

T1 sequence (P28845 whole entry): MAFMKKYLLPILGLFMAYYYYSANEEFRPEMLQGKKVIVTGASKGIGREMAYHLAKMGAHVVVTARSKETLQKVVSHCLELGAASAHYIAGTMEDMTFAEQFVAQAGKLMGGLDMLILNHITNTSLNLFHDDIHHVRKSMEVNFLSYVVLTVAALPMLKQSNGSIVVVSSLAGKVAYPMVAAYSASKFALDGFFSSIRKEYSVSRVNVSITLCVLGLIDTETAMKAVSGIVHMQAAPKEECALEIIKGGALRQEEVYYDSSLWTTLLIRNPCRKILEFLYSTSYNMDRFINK

Row | pIC50 | SMILES
1 | 6.48 | O=S1(=O)N=C(N[C@@H](CCO)c2ccccc2F)OC2(COC2)C1c1ccc(-c2ccccc2)cc1 (stereo partly drawn) [Example 76, (S)-3-(9-Biphenyl-4-yl-8,8-dioxo-2,5-dioxa-8lambda6-thia-7-aza-spiro[3.5]non-6-en-6-ylamino)-3-(2-fluorophenyl)-propan-1-ol]
2 | 7.59 | O=S1(=O)N=C(N[C@@H](CCO)c2ccccc2F)OC2(CCC2)C1c1ccc(-c2ccccc2)cc1 (stereo partly drawn) [Example 77, (S)-3-(9-Biphenyl-4-yl-8,8-dioxo-5-oxa-8lambda6-thia-7-aza-spiro[3.5]non-6-en-6-ylamino)-3-(2-fluorophenyl)-propan-1-ol]
3 | 7.46 | O=S1(=O)N=C(N[C@@H](CCO)c2ccccc2F)OC2(CCCC2)C1c1ccc(-c2ccccc2)cc1 (stereo partly drawn) [Example 78, (S)-3-(10-Biphenyl-4-yl-9,9-dioxo-6-oxa-9lambda6-thia-8-aza-spiro[4.5]dec-7-en-7-ylamino)-3-(2-fluorophenyl)-propan-1-ol]
4 | 8.10 | Cc1ccccc1-c1ccc(C2(C)C(C)(C)OC(N[C@@H](CCO)c3ccccc3F)=NS2(=O)=O)cc1 (stereo partly drawn) [Example 79, (S)-3-(2-Fluorophenyl)-3-[5,6,6-trimethyl-5-(2′-methyl-biphenyl-4-yl)-4,4-dioxo-5,6-dihydro-4H-4lambda6-[1,4,3]oxathiazin-2-ylamino]-propan-1-ol]
5 | 8.15 | CC1(C)OC(N[C@@H](CCO)c2ccccc2F)=NS(=O)(=O)C1(C)c1ccc(-c2ccc(F)cc2)cc1 (stereo partly drawn) [Example 80, (S)-3-[5-(4′-Fluorobiphenyl-4-yl)-5,6,6-trimethyl-4,4-dioxo-5,6-dihydro-4H-4lambda6-[1,4,3]oxathiazin-2-ylamino]-3-(2-fluorophenyl)-propan-1-ol]
6 | 8.00 | COc1ccc(-c2ccc(C3(C)C(C)(C)OC(N[C@@H](CCO)c4ccccc4F)=NS3(=O)=O)cc2)cc1 (stereo partly drawn) [Example 81, (S)-3-(2-Fluorophenyl)-3-[5-(4′-methoxy-biphenyl-4-yl)-5,6,6-trimethyl-4,4-dioxo-5,6-dihydro-4H-4lambda6-[1,4,3]oxathiazin-2-ylamino]-propan-1-ol]
7 | 7.64 | CC1(C)OC(NC(CCO)c2cccc(F)c2F)=NS(=O)(=O)C1c1ccc(-c2ccccc2)cc1 (stereo not shown) [Example 82, 3-(5-Biphenyl-4-yl-6,6-dimethyl-4,4-dioxo-5,6-dihydro-4H-4lambda6-[1,4,3]oxathiazin-2-ylamino)-3-(2,3-difluorophenyl)-propan-1-ol]
8 | 7.77 | CC1(C)OC(N[C@@H](CCO)c2ccccc2Cl)=NS(=O)(=O)C1c1ccc(-c2ccccc2)cc1 (stereo partly drawn) [Example 83, (S)-3-(5-Biphenyl-4-yl-6,6-dimethyl-4,4-dioxo-5,6-dihydro-4H-4lambda6-[1,4,3]oxathiazin-2-ylamino)-3-(2-chloro-phenyl)-propan-1-ol]
9 | 8.00 | COc1cccc(-c2ccc(C3C(C)(C)OC(N[C@@H](CCO)c4ccccc4F)=NS3(=O)=O)cc2)c1 (stereo partly shown) [Example 86]
10 | 8.15 | CC1(C)OC(N[C@@H](CCO)c2ccccc2F)=NS(=O)(=O)C1c1ccc(-c2ccccc2C#N)cc1 (stereo partly shown) [Example 87]
11 | 6.70 | CC1(C)OC(N[C@@H](CCO)c2ccc(Cl)cc2)=NS(=O)(=O)C1c1ccc(-c2ccccc2)cc1 (stereo partly drawn) [Example 88, (S)-3-(5-Biphenyl-4-yl-6,6-dimethyl-4,4-dioxo-5,6-dihydro-4H-4lambda6-[1,4,3]oxathiazin-2-ylamino)-3-(4-chloro-phenyl)-propan-1-ol]
12 | 7.68 | CC1(C)OC(N[C@@H](CCO)c2cccc(Cl)c2)=NS(=O)(=O)C1c1ccc(-c2ccccc2)cc1 (stereo partly drawn) [Example 89, (S)-3-(5-Biphenyl-4-yl-6,6-dimethyl-4,4-dioxo-5,6-dihydro-4H-4lambda6-[1,4,3]oxathiazin-2-ylamino)-3-(3-chloro-phenyl)-propan-1-ol]
13 | 8.15 | CC1(C)OC(N[C@@H](CCO)c2ccccc2F)=NS(=O)(=O)C1c1ccc(-c2cncnc2)cc1 (stereo partly drawn) [Example 90, (S)-3-[6,6-Dimethyl-4,4-dioxo-5-(4-pyrimidin-5-yl-phenyl)-5,6-dihydro-4H-4lambda6-[1,4,3]oxathiazin-2-ylamino]-3-(2-fluorophenyl)-propan-1-ol]
